Patent publication US20120264811A1, “Elongator Proteins and Use Thereof as DNA Demethylases” (The University of North Carolina at Chapel Hill, priority 2009, published 2012)
Entries after “also recorded” stand apart in the source; their conditions may differ.

How the values were obtained:
[1] = tested on: paternal DNA demethylation; assay: chemical injection into oocytes, paternal DNA demethylation; format: cell-based, mouse; settings: approximately 10 pl of 10 μM in ethanol injected; final concentration estimated 0.4 μM
Description: For chemical injection, approximately 10 pl of 3,5-Di-tert-butyltoluene and butylated hydroxytoluence (Sigma Aldrich) at the concentration of 10 μM in ethanol were injected with H3.3-mRFP1 mRNA. The final chemical concentration is estimated as
0.4 μM based on an estimated mouse oocyte volume of 270 pl. The final estimated ethanol concentration is about 4%. For determination of knockdown efficiency, RNA isolated from 10-20 zygotes at PN4-5 stage was used for reverse transcription using the SuperScript III Cell Direct cDNA synthesis kit (Invitrogen) followed by quantitative PCR (qPCR) using SYBR GreenER (Invitrogen). Results were normalized with 18S rRNA as a standard.

[2] = tested on: NIH3T3 cells that stably express CxxC-EGFP; assay: CxxC-EGFP reporter dot formation in NIH3T3 cells; format: cell-based, mouse; settings: 5 μM for 72 hours

| SMILES | paternal DNA demethylation after chemical injection [1] | number and intensity of GFP bright dots (nuclear dot-formation of CxxC probe) [2] |
| --- | --- | --- |
| Cc1cc(C(C)(C)C)c(O)c(C(C)(C)C)c1 [butylated hydroxytoluene] | blocked DNA demethylation |  |
| Nc1ncn([C@H]2C[C@H](O)[C@@H](CO)O2)c(=O)n1 [5-Aza-dC, 5-Aza-2′ deoxycytidine] |  | clear increase; also recorded: Enhanced nuclear dot-formation |
